Measured values as given in publication PMC10305181, “A VEGFB-Based Peptidomimetic Inhibits VEGFR2-Mediated PI3K/Akt/mTOR and PLCγ/ERK Signaling and Elicits Apoptotic, Antiangiogenic, and Antitumor Activities” (Pharmaceuticals, 2023).
Bridge positions count the residues as written; N and C are the ends. Peptide text beside a SMILES is read from it.

Assays:
[1] = test system: Ki67-positive cells; assay: Ki67 immunohistochemistry of 4T1 tumors (proliferation); format: in vivo, murine; conditions: 0.2 mg·kg^−1 i.v.; n = 3; p = 0.04 vs control
Protocol: (§1) Figure 2 Loop formation is important for the antitumor activity of VGB3. (A) To investigate the efficacy of VGB3 peptides in vivo 13 days after transplantation of a 4T1 murine MCT into female BALB/c mice (the tumor volume ~150 mm^3), the treatment groups received 0.2 mg·kg^−1 (once every 2 days, i.v.) of either the C-VGB3 or L-VGB3 and the control group received PBS for 20 days. Error bars denote ± SEM. n = 6; **** p < 0.0001, ns = not significant; two-way ANOVA. (B) Investigation of C-VGB3 and L-VGB3 effects on mice weight. […] (C,D) Immunohistochemical (IHC) analyses of CD31 and Ki67 for the C-VGB3-, L-VGB3- and PBS-treated tumors. For IHC staining, the sections of tumor tissues were incubated with the primary mouse monoclonal antibodies for CD31 (1:2000 (v/v)) and Ki67 (5 µg·mL^−1). […] Photographs were taken at 40× magnification. Error bars denote ± SEM. n = 3; * 0.02 ≤ p ≤ 0.04, ns = not significant; one-way ANOVA.
(§2) For immunohistochemistry staining, deparaffinized tumor sections were incubated overnight at 4 °C with mouse monoclonal primary anti-Ki67 (5 µg·mL^−1) or anti-CD31 (1:2000 (v/v)). The antigens were detected using 3,3-diaminobenzidine. All images were captured and analyzed with an Olympus BX51 microscope (Olympus America, New York, NY, USA).

[2] = test system: CD31-stained microvessels; assay: CD31 immunohistochemistry of 4T1 tumors (microvessel density); format: in vivo, murine; conditions: 0.2 mg·kg^−1 i.v.; day 33; n = 3; p = 0.02
Protocol: as §1, §2

[3] = test system: extracellular domain of VEGFR2 (KDR); assay: ELISA-based displacement (competition binding) of biotinylated VEGF from VEGFR2; conditions: ELISA, n = 3
Protocol: Figure 3 The binding affinity of C-VGB3 to VEGFR2. (A) ELISA-based displacement assay. The gradient concentrations of C-VGB3 (0, 0.316, 1, 3.16, 10, 31.6, 100, and 316 μM) were used in the assay. […] Error bars denote ± SEM. n = 3; ** p = 0.001, *** p = 0.0001, **** p < 0.0001, ns = not significant; one-way ANOVA. (B) A three-dimensional (produced by UCSF chimera software version 1.12) and a two-dimensional representation (produced by LigPlot software) of interactions in the C-VGB3/VEGFR2 complex is shown on the left and the right, respectively.
A displacement assay was conducted as reported previously with some modifications, including using 20 ng of the VEGFR2 extracellular domains (R&D Systems, Minneapolis, MN, USA). Peptide compounds were assayed three times per experiment.
Figure S6. Evaluating the binding capability of L-VGB3 to VEGFR2
(A) ELISA-based displacement assay. The gradient concentrations of L-VGB3 (3.16, 10, […]
to the extracellular domain of VEGFR2 at applied concentrations. (B) Two-dimensional representation of interactions (produced by LigPlot software) in L-VGB3/VEGFR2 […]

[4] = test system: signaling proteins in HUVECs; assay: Western blot analysis, HUVECs; format: cell-based, human; conditions: 0.40 μM
Protocol: Next, to explore the mechanisms of the antiangiogenic property of C-VGB3, canonical signaling pathways mediated by VEGFR2 were assessed in HUVECs after 24 h incubation with C-VGB3 (0.40 μM). The binding of VEGF to VEGFR2 causes autophosphorylation of its tyrosine kinase domain and increases the receptor′s expression level on the cell surface. Therefore, we evaluated the ability of C-VGB3 to suppress the levels of constitutive and phosphorylated VEGFR2 in HUVECs.
The levels of signaling proteins were investigated by the Western blot assay. 4T1 and HUVE cells stimulated by VEGF (20 ng·mL^−1) were treated with (0.40 μM) or without C-VGB3 (treatment and control groups, respectively) after starvation in a serum-free medium for 24 h. After washing with PBS buffer twice, the cells were treated with RIPA lysis buffer containing (Sigma, St. Louis, MO, USA). Bradford′s test was performed to estimate the protein concentration. Equal amounts of total protein were electrophoresed on a 10% SDS-polyacrylamide gel, separated, and then transferred to a nitrocellulose membrane. Nitrocellulose was soaked in a blocking buffer containing 5% dry milk, Tris-buffered saline, and Tween 20 (TBST) for 1 h at ambient temperature. The nitrocellulose membrane was then washed with wash buffer and treated with antibodies against VEGFR2 p-VEGFR2, AKT, p-AKT, PI3K, mTOR, p-mTOR, NF-κB, p-NFκB, P53, MDM2, Bax, Bcl2, Bid, Bim, Apaf-1, cytochrome c, caspase-9, Fas (CD95), DR4 (CD261), DR5 (CD262), caspase3, caspase7, caspase8, PARP1, ERK 1/2, p-ERK1/2, Ras, Raf, Cdk4, GSK-3β, cyclin D1, vimentin, N-cadherin, E-cadherin, FAK, p-FAK, paxillin, p-paxillin, and β-actin overnight at 4 °C. The next steps were performed as described previously. Because molecular weight ranges of target signaling proteins are very close, individual gels were run for separate signaling proteins (Figure S7).

CC(C)C[C@@H]1NC(=O)CNC(=O)[C@H](CC(=O)O)NC(=O)[C@H](CC(=O)O)NC(=O)[C@@H]2CCCN2C(=O)[C@@H]2CCCN2C(=O)[C@H](CCCNC(=N)N)NC(=O)[C@@H](NC(=O)[C@@H](N)CCC(=O)O)CSSC[C@@H](C(=O)O)NC1=O [C-VGB3] (H-ECRPPDDGLC-OH; disulfide 2-10)
decrease in Ki67-positive cells [1]: 60%
reduction in vessel density (CD31) [2]: 84%
inhibition of binding of bt-VEGF to KDR ([3]; 0-316 μM): inhibits the binding of biotinylated VEGF (bt-VEGF) to KDR dose-dependently
displacement of btVEGF165 ([3]; 100 μM, ectodomain of VEGFR2): 58%
AKT level ([4]; 24 h, p < 0.0001): markedly reduced
CDK4 level ([4]; 24 h, p < 0.0001): decreased
RAS level ([4]; 24 h, p < 0.0001): decreased
mTOR total expression ([4]; 24 h, p < 0.0001): strongly suppressed
p-AKT level ([4]; 24 h, p < 0.0001): markedly reduced
p-VEGFR2 formation ([4]; 24 h, p < 0.0001): markedly inhibited
CyclinD1 level ([4]; 24 h, p = 0.0001): decreased
p-ERK1/2 level ([4]; 24 h, p = 0.0001): decreased
GSK3 expression ([4]; 24 h, p = 0.001): increased expression
NF-κB phosphorylation ([4]; 24 h, p = 0.001): suppressed
PI3K expression level ([4]; 24 h, p = 0.001): decreased
RAF level ([4]; 24 h, p = 0.001): decreased
VEGFR2 level ([4]; 24 h, p = 0.001): markedly inhibited
mTOR phosphorylation ([4]; 24 h, p = 0.001): strongly suppressed
ERK1/2 level ([4]; 24 h, p = 0.02): decreased
NF-κB expression ([4]; 24 h, p = 0.02): decreased
increase in cleaved PARP1 ([4]; HUVECs (first of 'respectively'), p < 0.0001): 3.50 fold
increase in Bax/Bcl2 ratio ([4]; HUVECs): approximately 3.35 fold
increased level of cleaved caspase-3 ([4]; HUVECs): 3.8 times
increased level of cleaved caspase-7 ([4]; HUVECs): 3.3 times
increased level of cleaved caspase-9 ([4]; HUVECs): 1.4 times
Bid expression level ([4]; HUVECs, p < 0.0001): increased
Apaf1 ([4]; HUVECs, p = 0.0001): increase
Bax level ([4]; HUVECs, p = 0.0001): increased
Bcl2 expression ([4]; HUVECs, p = 0.0001): decrease
P53 level ([4]; HUVECs, p = 0.0001): enormously increased
Bim level ([4]; HUVECs, p = 0.001): increased
DR4 level ([4]; HUVECs, p = 0.001): increase
MDM2 level ([4]; HUVECs, p = 0.001): markedly decreased
DR5 level ([4]; HUVECs, p = 0.02): increase
Fas expression ([4]; HUVECs, p = 0.02): slightly increased
cytochrome c ([4]; HUVECs, p = 0.02): increase
